In US20230302042A1, “METHODS FOR THE PREVENTION OF CHOLESTEROL CRYSTAL EMBOLIZATION WITH CYCLODEXTRINS” (Beren Therapeutics P.B.C., priority 2020, published 2023):

How the values were obtained:
[1] = tested on: 27-hydroxycholesterol; settings: human subject; intravenous doses 500-1,000 mg/kg every 4 weeks; FIGS. 2A-2C
Procedure: (§1) A human subject was treated with 2-hydroxypropyl-beta-cyclodextrin with single-ascending doses administered intravenously every 4 weeks according to Table 1 below.
(§2) In this Example, a human subject was treated with 2-hydroxypropyl-beta-cyclodextrin according to Example 1, and plasma levels of 24S-hydroxycholesterol and 27-hydroxycholesterol were measured. […] 27-hydroxycholesterol is an endogenous LXR ligand leading to a downstream anti-inflammatory gene signature which may, in some embodiments, address the detrimental inflammatory response via NLRP3 inflammasome effects of cholesterol crystal embolization. The elevated 27-hydroxycholesterol is also a cellular marker of macrophage activation and increased activity for cholesterol crystal phagocytosis and clearance.

[2] = tested on: 24S-hydroxycholesterol; settings: human subject; intravenous doses 500-1,000 mg/kg every 4 weeks; FIGS. 2A-2C
Procedure: as §1, §2

[3] = human subject; intravenous doses 500-1,000 mg/kg every 4 weeks; FIGS. 2A-2C
Procedure: as §1, §2

[4] = pre-dose human blood plasma incubated ex vivo with the cyclodextrin; FIG. 1B
Procedure: (§3) For each dose, whole blood was collected pre-dose, post-dose (line flush), 1 hour post-dose, and 24 hours post-dose. Plasma was separated from the whole blood and subjected to a cholesterol crystal dissolution capacity (CCDC) assay using techniques similar to those described in the literature. The CCDC assay measures the ability of a sample to dissolve cholesterol crystals.
Blood plasma pre-dose was also incubated ex vivo with 2-hydroxypropyl-beta-cyclodextrin and the ability of the plasma to dissolve cholesterol crystals was measured.

[5] = human subject; single-ascending intravenous doses 500, 750, 1,000, 1,000 mg/kg every 4 weeks; plasma pre-dose, post-dose, 1 hour and 24 hours post-dose; FIG. 1A
Procedure: as §3, with “A human subject was treated with 2-hydroxypropyl-beta-cyclodextrin with single-ascending doses administered intravenously every 4 weeks according to Table 1 below. […] For” for “For”

[6] = tested on: ABCA1; settings: human subject; intravenous doses 500-1,000 mg/kg every 4 weeks; peripheral blood; FIGS. 3A-3D
Procedure: as §1
(§4) In this Example, a human subject was treated with 2-hydroxypropyl-beta-cyclodextrin according to Example 1, and mRNA levels of the LXR transcription factor-regulated genes, ABCA1 and ABCG1, were measured. […] ABCA1 and ABCG1 are important cholesterol transporters and are responsible for cholesterol efflux from cells, loading of HDL particles for reverse cholesterol transport (RCT), and excretion via the hepatic pathway, to potentially reduce the cholesterol and cholesterol crystal emboli released into the vasculature and stabilize ruptured atherosclerotic plaque.

[7] = tested on: ABCG1; settings: human subject; intravenous doses 500-1,000 mg/kg every 4 weeks; peripheral blood; FIGS. 3A-3D
Procedure: as §1, §4

**Q.** For 2-hydroxypropyl-beta-cyclodextrin, which “plasma level of 27-hydroxycholesterol” value [1] is on record?
**A.** increased plasma levels

**Q.** What about the “plasma level of 24S-hydroxycholesterol” value [2] of the same substance?
**A.** increased plasma levels

**Q.** And the “total cholesterol levels in plasma” value [3]?
**A.** remained stable

**Q.** What about the “capacity of plasma to dissolve cholesterol crystals after ex vivo incubation” value [4] of the same substance?
**A.** increased capacity

**Q.** What about the “capability of blood plasma to dissolve cholesterol crystals (CCDC) after treatment” value [5] of the same substance?
**A.** increased capability

**Q.** What about the “mRNA level of ABCA1” value [6] of the same substance?
**A.** increased mRNA levels

**Q.** What about the “mRNA level of ABCG1” value [7] of the same substance?
**A.** increased mRNA levels
